Laboratory results as given in the NIST ThermoML archive (doi:10.1016/j.fluid.2012.12.014).
Numbers after ± are expanded uncertainties.

Details: Liquid, Closed cell (Static) method

O [water]
vapor or sublimation pressure (383.2 K): 142.5 ± 2.1 kPa
vapor or sublimation pressure (393.2 K): 198.7 ± 2.2 kPa
vapor or sublimation pressure (403.2 K): 270 ± 2.5 kPa
vapor or sublimation pressure (413.2 K): 361.7 ± 2.8 kPa
vapor or sublimation pressure (423.2 K): 476.1 ± 3 kPa
